Activity calls are given as the source filed them. No rule for the calls is given here.
System: CCRIS mutagenicity, Ames/micronucleus/aberration tests
Test: CCRIS mutagenicity studies
[1] = Test System: AMES SALMONELLA TYPHIMURIUM, Strain/Indicator: TA98, Metabolic Activation: NONE, Method: PREINCUBATION

## c1ccc2nccnc2c1
Test System: AMES SALMONELLA TYPHIMURIUM, Strain/Indicator: TA98, Metabolic Activation: HAMSTER, LIVER, S-9, AROCLOR 1254, Method: STANDARD PLATE
  mutagenic call: inactive; negative
[1]
  mutagenic call: inactive; negative
Test System: AMES SALMONELLA TYPHIMURIUM, Strain/Indicator: TA98, Metabolic Activation: NONE, Method: STANDARD PLATE
  mutagenic call: inactive; negative
Test System: AMES SALMONELLA TYPHIMURIUM, Strain/Indicator: TA98, Metabolic Activation: RAT, LIVER, S-9, AROCLOR 1254, Method: PREINCUBATION
  mutagenic call: active; positive
Test System: AMES SALMONELLA TYPHIMURIUM, Strain/Indicator: TA98, Metabolic Activation: RAT, LIVER, S-9, AROCLOR 1254, Method: STANDARD PLATE
  mutagenic call: inactive; negative
Test System: AMES SALMONELLA TYPHIMURIUM, Strain/Indicator: TA100, Metabolic Activation: HAMSTER, LIVER, S-9, AROCLOR 1254, Method: STANDARD PLATE
  mutagenic call: inactive; negative
Test System: AMES SALMONELLA TYPHIMURIUM, Strain/Indicator: TA100, Metabolic Activation: NONE, Method: PREINCUBATION
  mutagenic call: inactive; negative
Test System: AMES SALMONELLA TYPHIMURIUM, Strain/Indicator: TA100, Metabolic Activation: NONE, Method: STANDARD PLATE
  mutagenic call: inactive; negative
Test System: AMES SALMONELLA TYPHIMURIUM, Strain/Indicator: TA100, Metabolic Activation: RAT, LIVER, S-9, AROCLOR 1254, Method: PREINCUBATION
  mutagenic call: inactive; negative
Test System: AMES SALMONELLA TYPHIMURIUM, Strain/Indicator: TA100, Metabolic Activation: RAT, LIVER, S-9, AROCLOR 1254, Method: STANDARD PLATE
  mutagenic call: inactive; negative
Test System: AMES SALMONELLA TYPHIMURIUM, Strain/Indicator: TA102, Metabolic Activation: NONE, Method: PREINCUBATION
  mutagenic call: inactive; negative
Test System: AMES SALMONELLA TYPHIMURIUM, Strain/Indicator: TA102, Metabolic Activation: RAT, LIVER, S-9, AROCLOR 1254, Method: PREINCUBATION
  mutagenic call: inactive; negative
Test System: AMES SALMONELLA TYPHIMURIUM, Strain/Indicator: TA1535, Metabolic Activation: HAMSTER, LIVER, S-9, AROCLOR 1254, Method: STANDARD PLATE
  mutagenic call: inactive; negative
Test System: AMES SALMONELLA TYPHIMURIUM, Strain/Indicator: TA1535, Metabolic Activation: NONE, Method: STANDARD PLATE
  mutagenic call: inactive; negative
Test System: AMES SALMONELLA TYPHIMURIUM, Strain/Indicator: TA1535, Metabolic Activation: RAT, LIVER, S-9, AROCLOR 1254, Method: STANDARD PLATE
  mutagenic call: inactive; negative
Test System: AMES SALMONELLA TYPHIMURIUM, Strain/Indicator: TA1537, Metabolic Activation: HAMSTER, LIVER, S-9, AROCLOR 1254, Method: STANDARD PLATE
  mutagenic call: inactive; negative
Test System: AMES SALMONELLA TYPHIMURIUM, Strain/Indicator: TA1537, Metabolic Activation: NONE, Method: STANDARD PLATE
  mutagenic call: inactive; negative
Test System: AMES SALMONELLA TYPHIMURIUM, Strain/Indicator: TA1537, Metabolic Activation: RAT, LIVER, S-9, AROCLOR 1254, Method: STANDARD PLATE
  mutagenic call: inactive; negative
Test System: AMES SALMONELLA TYPHIMURIUM, Strain/Indicator: TA1538, Metabolic Activation: HAMSTER, LIVER, S-9, AROCLOR 1254, Method: STANDARD PLATE
  mutagenic call: inactive; negative
Test System: AMES SALMONELLA TYPHIMURIUM, Strain/Indicator: TA1538, Metabolic Activation: NONE, Method: STANDARD PLATE
  mutagenic call: inactive; negative
Test System: AMES SALMONELLA TYPHIMURIUM, Strain/Indicator: TA1538, Metabolic Activation: RAT, LIVER, S-9, AROCLOR 1254, Method: STANDARD PLATE
  mutagenic call: inactive; negative
Test System: Mouse lymphoma, Strain/Indicator: L5178Y (tk+/tk-), Metabolic Activation: None, Method: Suspension/plate
  mutagenic call: inactive; negative
Test System: Mouse lymphoma, Strain/Indicator: L5178Y (tk+/tk-), Metabolic Activation: Rat, Liver, S-9, Aroclor 1254, Method: Suspension/plate
  mutagenic call: active; positive

## O=[N+]([O-])c1ccc2c(c1)-c1ccccc1C2
End Point: IN VITRO CHROMOSOMAL ABERRATIONS, Test System: CHINESE HAMSTER LUNG (CHL) CELLS, Metabolic Activation: NONE
  mutagenic call: inactive; negative
End Point: IN VITRO CHROMOSOMAL ABERRATIONS, Test System: CHINESE HAMSTER LUNG (CHL) CELLS, Metabolic Activation: RAT, LIVER, S-9, KC-400
  mutagenic call: active; positive
Test System: AMES SALMONELLA TYPHIMURIUM, Strain/Indicator: TA98 (1,8-DNP6), Metabolic Activation: NONE, Method: PREINCUBATION
  mutagenic call: active; positive
Test System: AMES SALMONELLA TYPHIMURIUM, Strain/Indicator: TA98(NR), Metabolic Activation: NONE, Method: PREINCUBATION
  mutagenic call: active; positive
Test System: AMES SALMONELLA TYPHIMURIUM, Strain/Indicator: TA98(NR), Metabolic Activation: RAT LIVER S-9 (10%), Method: PREINCUBATION
  mutagenic call: active; positive
Test System: AMES SALMONELLA TYPHIMURIUM, Strain/Indicator: TA98 (NR), Metabolic Activation: RAT LIVER S-9, 3-METHYLCHOLANTHRENE (10%), Method: PREINCUBATION
  mutagenic call: active; positive
Test System: AMES SALMONELLA TYPHIMURIUM, Strain/Indicator: TA98(NR), Metabolic Activation: RAT LIVER S-9, BETA-NAPHTHAFLAVONE (10%), Method: PREINCUBATION
  mutagenic call: active; positive
Test System: AMES SALMONELLA TYPHIMURIUM, Strain/Indicator: TA98(NR), Metabolic Activation: RAT LIVER S-9, PCB (10%), Method: PREINCUBATION
  mutagenic call: active; positive
Test System: AMES SALMONELLA TYPHIMURIUM, Strain/Indicator: TA98(NR), Metabolic Activation: RAT LIVER S-9, PHENOBARBITAL (10%), Method: PREINCUBATION
  mutagenic call: active; positive
[1]
  mutagenic call: active; positive
